{"source": "paper PMC9056410", "about": "“14-Residue peptaibol velutibol A from Trichoderma velutinum: its structural and cytotoxic evaluation” (RSC Advances, 2020)", "key": {"[1]": {"system": "human myeloid leukemia (HL-60)", "assay": "cells", "type": "cell-based", "details": "MTT, mean ± SD of three experiments, read-out: IC50 ± standard deviation", "description": "(§1) The cytotoxicity testing of compound 1 was performed against various cell lines, which includes human lung cancer (A549), human colon cancer (LS-180), human myeloid leukemia (HL-60) and human breast cancer (MDA-MB-231) using MTT (3-(4,5-dimethylthiazole-2-yl)-2,5-diphenyltetrazolium bromide). Herein, paclitaxel was used as positive control for cytotoxic assay. […] Further, the cell-cycle assay was performed on HL-60 cell lines. The compound 1 was treated against HL-60 cells at concentrations 5, 10, 20 and 30 μM and incubated for 24 h. […] Apoptotic bodies are small DNA fragments wrapped around the single membrane vesicles mainly formed when cells undergo apoptosis. These apoptotic bodies can be visualized under a fluorescent microscope by using DNA staining dyes such as 4′,6-diamidino-2-phenylindole (DAPI). The HL-60 cells were incubated with the compound 1 at different concentrations (5, 10, 20 and 30 μM) for 24 h. […] The % apoptosis is also represented graphically in Fig. 7.\n(§2) The cytotoxic effect of compound 1 on cancer cells was assayed by using MTT dye. The HL-60 cell lines were seeded for 4 h in round bottom 96 well plates. It was then treated with different concentrations of compound 1 dissolved in DMSO and incubated for 48 h. With 3 h earlier to experiment termination, the MTT dye (20 μL) from the stock solution of 2.5 mg mL^−1 was added to each well. The MTT-formazan crystals thus formed were dissolved in DMSO (160 μL) and observed at 570 nm. The untreated control culture was treated with DMSO (<0.2%)."}, "[2]": {"system": "human breast cancer (MDA-MB-231)", "assay": "cells", "type": "cell-based", "details": "MTT, mean ± SD of three experiments, read-out: IC50 ± standard deviation", "description": "as §1, §2"}, "human lung cancer (A549)": {"system": "human lung cancer (A549)", "assay": "cells", "type": "cell-based", "details": "MTT, mean ± SD of three experiments, read-out: IC50 ± standard deviation", "description": "as §1, §2"}, "[3]": {"system": "human colon cancer (LS-180)", "assay": "cells", "type": "cell-based", "details": "mean ± SD of three experiments, read-out: IC50 ± standard deviation", "description": "as §1, §2"}, "M. tuberculosis H37Rv [4]": {"system": "M. tuberculosis H37Rv", "assay": "microbe, parasite or virus in culture", "details": "Mycobacterium tuberculosis, read-out: Minimum Inhibitory Concentration (MIC)"}, "M. tuberculosis H37Rv [5]": {"system": "M. tuberculosis H37Rv", "details": "48 h"}, "HL-60 cells [6]": {"system": "HL-60 cells", "assay": "Nuclear morphology, DAPI staining, fluorescence microscopy", "type": "cell-based, human", "details": "HL-60, 5, 10, 20 and 30 μM, 24 h", "description": "as §1\nHL-60 cells were incubated with compound 1 in a 12 well plate. After 24 h, cells were centrifuged at 400 × g, collected and washed two times with PBS. The cells were fixed using 1 mL solution of cold acetic acid in methanol (1 : 3) and incubated overnight at 4 °C. Further, the cells were centrifuged at 400 × g, collected and re-suspended in fixing solution (100 μL). […]"}, "HL-60 cells [7]": {"system": "HL-60 cells", "assay": "Cell cycle analysis, propidium iodide staining, flow cytometry", "type": "cell-based, human", "details": "24 h, PI staining", "description": "as §1\nThe cell cycle phase distribution analysis in HL-60 cells was carried out by propidium iodide (PI) staining. The HL-60 cells were treated with different concentration (5, 10, 20 and 30 μM) of 1. After 24 h, the cells were centrifuged and collected at 400 × g and washed two times with PBS followed by fixing with ice-cold ethanol (70%). It was incubated overnight at 4 °C. Next day, cells were centrifuged at 4000 rpm, collected and washed with PBS followed by incubation with RNase (0.2 mg mL^−1) for 90 min at 37 °C. It was then stained with PI (10 μg mL^−1) and kept for 30 min in dark. The analysis of cells were carried out through flow-cytometer (FACS Calibur, Becton Dickinson) using list mode on 10 000 events for FL2-A vs. FL2-W. The ModFit software was used for the calculation of fluorescence intensity of the sub-G1 cell fraction representing the apoptotic cell population."}, "[8]": {"details": "48 h incubation, read at 570 nm"}}, "note": "Read-outs that look alike come from different tables or passages of the source. Where a SMILES comes first, the peptide text is derived from it. [ ]: non-standard residue; d: D form. Leu(ol) = CC(C)C[C@H](N)CO; Aib = CC(C)(N)C(=O)O", "data": [{"smiles": "CC(=O)O[C@H]1C(=O)[C@@]2(C)[C@H]([C@H](OC(=O)c3ccccc3)[C@]3(O)C[C@H](OC(=O)[C@H](O)[C@@H](NC(=O)c4ccccc4)c4ccccc4)C(C)=C1C3(C)C)[C@]1(OC(C)=O)CO[C@@H]1C[C@@H]2O", "note": "[Paclitaxel, paclitaxel, reference compound]", "values": [{"measurement": "IC50", "setting": "[1]; Homo sapiens, positive control", "value": "1.8 ± 0.1", "unit": "nM"}, {"measurement": "IC50", "setting": "[2]; Homo sapiens, positive control", "value": "3.3 ± 0.1", "unit": "nM"}, {"measurement": "IC50", "setting": "human lung cancer (A549); Homo sapiens, positive control", "value": "6.2 ± 0.1", "unit": "nM"}, {"measurement": "IC50", "setting": "[3]; Homo sapiens, LS180, MTT, positive control", "value": "2.2 ± 0.1", "unit": "nM"}]}, {"smiles": "CO[C@H]1/C=C/O[C@@]2(C)Oc3c(C)c(O)c4c(O)c(c(/C=N/N5CCN(C)CC5)c(O)c4c3C2=O)NC(=O)/C(C)=C\\C=C\\[C@H](C)[C@H](O)[C@@H](C)[C@@H](O)[C@@H](C)[C@H](OC(C)=O)[C@@H]1C", "note": "[Rifampicin]", "values": [{"measurement": "MIC", "setting": "M. tuberculosis H37Rv [4]", "value": 0.06, "unit": "µg/mL"}]}, {"smiles": "CC(=O)NC(C)(C)C(=O)N[C@@H](CCC(N)=O)C(=O)N[C@@H](CC(C)C)C(=O)NC(C)(C)C(=O)N1CCC[C@H]1C(=O)N[C@H](C(=O)N[C@@H](CC(C)C)C(=O)NC(C)(C)C(=O)N1CCC[C@H]1C(=O)NC(C)(C)C(=O)NC(C)(C)C(=O)NC(C)(C)C(=O)N1CCC[C@H]1C(=O)N[C@H](CO)CC(C)C)C(C)C", "note": "[compound 1, Velutibol A] (Ac-[Aib]QL[Aib]PVL[Aib]P[Aib][Aib][Aib]P[Leu(ol)])", "values": [{"measurement": "Minimum Inhibitory Concentration (MIC)", "setting": "M. tuberculosis H37Rv [5]", "value": 32, "unit": "µg/mL"}, {"measurement": "IC50", "setting": "[1]; [8]", "value": "4000 ± 100", "unit": "nM"}, {"measurement": "IC50", "setting": "[2]; [8]", "value": "7000 ± 200", "unit": "nM"}, {"measurement": "IC50", "setting": "human lung cancer (A549); [8]", "value": "23000 ± 800", "unit": "nM"}, {"measurement": "IC50", "setting": "[3]; MTT, 48 h incubation, read at 570 nm", "value": "26000 ± 1100", "unit": "nM"}, {"measurement": "Formation of apoptotic bodies", "setting": "HL-60 cells [6]", "value": "increased in a dose-dependent manner"}, {"measurement": "Apop (apoptotic DNA population, sub-G1)", "setting": "HL-60 cells [7]; HL-60, 10 μM", "value": 70, "unit": "%"}, {"measurement": "Apop (apoptotic DNA population, sub-G1)", "setting": "HL-60 cells [7]; HL-60, 20 μM", "value": 85, "unit": "%"}, {"measurement": "Apop (apoptotic DNA population, sub-G1)", "setting": "HL-60 cells [7]; HL-60, 30 μM", "value": 99, "unit": "%"}]}]}
